Key:
FLT3 = target: T1, FLT3 (Homo sapiens, UniProt P36888); test: TR-FRET kinase activity assay, FLT3; format: biochemical; conditions: ATP at Km, 60 minutes
T1 sequence (P36888 27-993): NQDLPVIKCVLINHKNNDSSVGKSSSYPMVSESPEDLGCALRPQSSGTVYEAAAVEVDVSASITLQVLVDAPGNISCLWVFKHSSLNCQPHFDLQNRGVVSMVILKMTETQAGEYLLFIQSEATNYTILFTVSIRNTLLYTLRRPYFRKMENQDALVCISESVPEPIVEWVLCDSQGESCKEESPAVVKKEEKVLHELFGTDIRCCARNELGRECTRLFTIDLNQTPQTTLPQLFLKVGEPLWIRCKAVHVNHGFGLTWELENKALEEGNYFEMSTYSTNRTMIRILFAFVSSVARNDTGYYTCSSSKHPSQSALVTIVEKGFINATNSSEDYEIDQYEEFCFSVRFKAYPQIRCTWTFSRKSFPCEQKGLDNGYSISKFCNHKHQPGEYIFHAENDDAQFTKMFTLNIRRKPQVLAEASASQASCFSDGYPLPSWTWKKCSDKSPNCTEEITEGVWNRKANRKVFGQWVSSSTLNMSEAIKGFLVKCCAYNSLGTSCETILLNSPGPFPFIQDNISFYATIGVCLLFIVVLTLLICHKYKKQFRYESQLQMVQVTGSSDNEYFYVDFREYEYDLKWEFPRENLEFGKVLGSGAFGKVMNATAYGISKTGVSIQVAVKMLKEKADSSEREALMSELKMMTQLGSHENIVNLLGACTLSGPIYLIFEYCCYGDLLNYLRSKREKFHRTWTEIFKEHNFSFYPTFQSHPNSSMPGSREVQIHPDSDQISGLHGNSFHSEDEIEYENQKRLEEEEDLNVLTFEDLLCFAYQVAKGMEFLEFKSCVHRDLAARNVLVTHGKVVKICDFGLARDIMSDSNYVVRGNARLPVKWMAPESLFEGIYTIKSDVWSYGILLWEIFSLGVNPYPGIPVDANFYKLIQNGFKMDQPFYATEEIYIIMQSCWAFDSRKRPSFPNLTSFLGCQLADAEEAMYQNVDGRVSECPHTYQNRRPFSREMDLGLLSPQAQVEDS
In short: (§1)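 Inhibition is measured as loss of phospho-peptide formation: kinase, fluorescent tyrosine peptide and compound are combined, ATP is added at Km, and the reaction proceeds 60 min at RT in pH 7.5 HEPES buffer. An EDTA stop and Eu-labelled phospho-specific antibody allow TR-FRET detection for IC50 fitting.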

TYRO3 = target: T2, TYRO3 (Homo sapiens, UniProt Q06418); test: TR-FRET kinase activity assay, TYRO3; format: biochemical; conditions: ATP at Km, 60 minutes
T2 sequence (Q06418 41-890): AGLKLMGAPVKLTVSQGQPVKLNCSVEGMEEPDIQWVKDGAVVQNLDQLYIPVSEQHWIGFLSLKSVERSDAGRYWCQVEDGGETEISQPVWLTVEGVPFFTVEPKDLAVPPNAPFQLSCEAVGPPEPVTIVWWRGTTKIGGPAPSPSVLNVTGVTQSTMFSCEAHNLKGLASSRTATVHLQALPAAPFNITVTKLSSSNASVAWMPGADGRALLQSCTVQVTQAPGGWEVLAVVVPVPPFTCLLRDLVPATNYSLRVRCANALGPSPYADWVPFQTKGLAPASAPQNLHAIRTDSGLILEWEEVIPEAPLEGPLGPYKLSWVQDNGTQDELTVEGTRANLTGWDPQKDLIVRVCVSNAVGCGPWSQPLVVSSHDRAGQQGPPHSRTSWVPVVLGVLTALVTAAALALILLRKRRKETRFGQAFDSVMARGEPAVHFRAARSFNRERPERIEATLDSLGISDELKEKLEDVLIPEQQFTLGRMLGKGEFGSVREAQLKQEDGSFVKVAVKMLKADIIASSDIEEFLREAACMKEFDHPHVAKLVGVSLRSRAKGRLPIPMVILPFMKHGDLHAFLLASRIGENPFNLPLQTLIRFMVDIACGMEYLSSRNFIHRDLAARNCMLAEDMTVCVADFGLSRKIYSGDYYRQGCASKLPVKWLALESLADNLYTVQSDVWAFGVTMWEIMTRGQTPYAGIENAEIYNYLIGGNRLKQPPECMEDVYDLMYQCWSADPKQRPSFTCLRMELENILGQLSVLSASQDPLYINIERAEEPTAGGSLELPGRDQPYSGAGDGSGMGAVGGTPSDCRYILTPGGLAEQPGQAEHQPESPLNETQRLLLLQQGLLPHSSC
In short: as §1

Row | IC50 (FLT3) [nM] | IC50 (TYRO3) [nM] | SMILES
1 | 100 to 1000 | ≤ 100 | COC[C@H](C)Nc1ncc2c(-c3cnn([C@@H]4CCNC4=O)c3)cc([C@H]3CC[C@H](O)CC3)n2n1 [Compound 315]
2 | 1000 to 10000 | ≤ 100 | COC[C@H](C)Nc1ncc2c(-c3ccnc(C)c3)cc(C3CCC4(CC3)NC(=O)NC4=O)n2n1 (mixture of isomers) [Compound 325, (S)-8-(2-((1-methoxypropan-2-yl)amino)-5-(2-methylpyridin-4-yl)pyrrolo[2,1-f][1,2,4]triazin-7-yl)-1,3-diazaspiro[4.5]decane-2,4-dione]
3 | ≤ 100 | ≤ 100 | Cc1nnc(Cn2cc(-c3cc([C@H]4CC[C@H](O)CC4)n4nc(N[C@@H](C)CC(F)(F)F)ncc34)cn2)o1 [Compound 296]
4 | ≤ 100 | ≤ 100 | COC[C@H](C)Nc1ncc2c(-c3cnn(C4CN(C(=O)C5(C(F)(F)F)CC5)C4)c3)cc([C@H]3CC[C@H](O)CC3)n2n1 [Compound 294]
5 | 100 to 1000 | ≤ 100 | CCCCC[C@H](C)Nc1ncc2c(C3=CC[C@@H](C(=O)N4CCOCC4)CC3)cc([C@H]3CC[C@H](O)CC3)n2n1 [Compound 113]
6 | 100 to 1000 | ≤ 100 | COC[C@H](C)Nc1ncc2c(-c3ccnc(N4CCNC(=O)C4)c3)cc([C@H]3CC[C@H](O)CC3)n2n1 [Compound 340]
7 | 1000 to 10000 | ≤ 100 | COC[C@H](C)Nc1ncc2c(-c3cnn(C(C)(C)C(=O)O)c3)cc([C@H]3CC[C@H](O)CC3)n2n1 [Compound 284]

— US11040981B2, “Pyrrolotriazine compounds and methods of inhibiting TAM kinases” (Syros Pharmaceuticals, Inc., priority 2017, dated 2021)
